Test [1] has as its target human CYP11B2 (Homo sapiens (Human), UniProt P19099). Description: G-402 cellular enzyme assay, human CYP11B2 (aldosterone release, HTRF). The settings on record: G-402 cells expressing human CYP11B2; 1 μM Deoxycorticosterone. It counts as cell-based. The source says: (§1) Herein we identified the use of the G-402 cell line as a host cell to ectopically express (transiently or stably) enzymes of the CYP11 family. Specifically we developed stable G-402 cells expressing ectopically human CYP11B1, human CYP11B2, human CYP11A1, cynmolgus CYP11B1 or cynomolgus CYP11B2 enzyme activity. Importantly the identified cell line G-402 expresses co-factors (adrenodoxin and adrenodoxin reductase) important for the activity of the CYP11 family and no relevant enzyme activity of the CYP11 family (in comparison to H295R cells) was detected in these cells. Therefore the G-402 cell line is uniquely suited as a host cell for the ectopic expression of enzymes from the CYP11 family.
(§2) G-402 cells can be obtained from ATCC (CRL-1440) and were originally derived from a renal leiomyoblastoma.
(§3) The expression plasmids contains the ORF for either human/cyno CYP11B1 or CYP11B2 under the control of a suitable promoter (CMV-promoter) and a suitable resistance marker (neomycin). Using standard techniques the expression plasmid is transfected into G-402 cells and these cells are then selected for expressing the given resistance markers. Individual cell-clones are then selected and assessed for displaying the desired enzymatic activity using 11-Deoxycorticosterone (Cyp11B2) or 11-Deoxycortisol (Cyp11B1) as a substrate.
(§4) G-402 cells expressing CYP11 constructs were established as described above and maintained in McCoy's 5a Medium Modified, ATCC Catalog No. 30-2007 containing 10% FCS and 400 μg/ml G418 (Geneticin) at 37° C. under an atmosphere of 5% CO2/95% air. Cellular enzyme assays were performed in DMEM/F12 medium containing 2.5% charcoal treated FCS and appropriate concentration of substrate (0.3-10 uM 11-Deoxycorticosterone, 11-Deoxycortisol or Corticosterone). For assaying enzymatic activity, cells were plated onto 96 well plates and incubated for 16 h. An aliquot of the supernatant is then transferred and analyzed for the concentration of the expected product (Aldosterone for CYP11B2; Cortisol for CYP11B1). The concentrations of these steroids can be determined using HTRF assays from CisBio analyzing either Aldosterone or Cortisol.
(§5) Inhibition of the release of produced steroids can be used as a measure of the respective enzyme inhibition by test compounds added during the cellular enzyme assay. The dose dependent inhibition of enzymatic activity by a compound is calculated by means of plotting added inhibitor concentrations (x-axes) vs. measured steroid/product level (y-axes). The inhibition is then calculated by fitting the following 4-parameter sigmoidal function (Morgan-Mercer-Flodin (MMF) model) to the raw data points using the least squares method:
(§6) [formula] wherein, A is the maximum y value, B is the EC50 factor determined using XLFit, C is the minimum y value and D is the slope value.
(§7) EC50 values for compounds claimed herein were tested with the G402-based assay system described. Cyp11B2 enzyme activity was tested in presence of 1 μM Deoxycorticosterone and variable amounts of inhibitors; Cyp11B1 enzyme activity was tested in presence of 1 μM Deoxycortisol and variable amounts of inhibitors.

Test [2] deals with human CYP11B1 (Homo sapiens (Human), UniProt P15538). Description: G-402 cellular enzyme assay, human CYP11B1 (cortisol release, HTRF). The settings on record: G-402 cells expressing human CYP11B1; 1 μM Deoxycortisol. Format: cell-based.
Source text: as §1, §2, §3, §4, §5, §6, §7
(In general: Time-resolved FRET reads energy transfer from a long-lived donor to a nearby acceptor.)

human CYP11B2, sequence (P19099 25-503): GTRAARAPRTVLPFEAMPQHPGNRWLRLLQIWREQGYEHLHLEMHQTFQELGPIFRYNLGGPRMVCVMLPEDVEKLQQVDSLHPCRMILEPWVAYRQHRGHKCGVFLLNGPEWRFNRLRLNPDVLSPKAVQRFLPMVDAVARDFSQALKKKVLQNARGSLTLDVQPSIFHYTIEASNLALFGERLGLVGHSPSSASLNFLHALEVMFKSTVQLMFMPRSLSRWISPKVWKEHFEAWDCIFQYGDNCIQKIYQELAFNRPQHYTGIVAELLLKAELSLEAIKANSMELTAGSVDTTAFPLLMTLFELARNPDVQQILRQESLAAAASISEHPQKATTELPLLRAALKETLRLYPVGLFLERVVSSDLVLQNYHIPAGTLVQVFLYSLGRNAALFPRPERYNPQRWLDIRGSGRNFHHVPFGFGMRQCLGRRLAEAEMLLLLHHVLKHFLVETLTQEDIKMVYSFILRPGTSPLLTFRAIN
human CYP11B1, sequence (P15538 25-503): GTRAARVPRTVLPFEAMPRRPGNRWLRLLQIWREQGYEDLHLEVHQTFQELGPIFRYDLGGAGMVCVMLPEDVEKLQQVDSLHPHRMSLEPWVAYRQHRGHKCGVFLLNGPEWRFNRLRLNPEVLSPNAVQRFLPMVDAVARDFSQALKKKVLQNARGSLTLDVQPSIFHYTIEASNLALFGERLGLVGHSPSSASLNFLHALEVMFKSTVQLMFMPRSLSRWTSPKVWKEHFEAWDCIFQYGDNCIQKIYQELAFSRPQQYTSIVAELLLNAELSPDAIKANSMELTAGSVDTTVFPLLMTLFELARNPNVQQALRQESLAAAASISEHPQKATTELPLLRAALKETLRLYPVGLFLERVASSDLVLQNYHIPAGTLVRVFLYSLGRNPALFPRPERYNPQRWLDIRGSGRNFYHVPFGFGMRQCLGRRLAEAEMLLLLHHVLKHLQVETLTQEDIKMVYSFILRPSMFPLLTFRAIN

Turning to `COc1ccc(Oc2cn[nH]c2-c2ccc(Cl)cc2)cc1` [Example 2, 3-(4-Chlorophenyl)-4-(4-methoxyphenoxy)-1H-pyrazole], the EC50 (usually the concentration needed to bring the measured effect to its halfway point) in test [1] is 463 nM; in test [2], 1970 nM.
Taken in the same sequence, the figures for `Cn1nncc1COc1ccccc1-c1[nH]ncc1Oc1ccc(C#N)cc1` [Example 81, 4-[[3-[2-[(3-Methyltriazol-4-yl)methoxy]phenyl]-1H-pyrazol-4-yl]oxy]benzonitrile] were 2.5 nM and 171 nM.
For `Clc1ccc(Oc2cn[nH]c2-c2ccccc2Cl)cn1` [Example 19, 2-Chloro-5-[[5-(2-chlorophenyl)-1H-pyrazol-4-yl]oxy]pyridine], the EC50 in test [1] turned out to be 113 nM; in test [2], 387 nM.
The corresponding values for `FC(F)Oc1ccccc1-c1[nH]ncc1Oc1ccc(Cl)cc1` [Example 8, 4-(4-Chlorophenoxy)-5-[2-(difluoromethoxy)phenyl]-1H-pyrazole] are 4 nM and 75.7 nM.
Taken in the same sequence, the figures for `N#Cc1ccc(Oc2cn[nH]c2-c2cccc(O)c2)cc1` [Example 48, 4-[[3-(3-Hydroxyphenyl)-1H-pyrazol-4-yl]oxy]benzonitrile] were 20.4 nM and 83.4 nM.
Taken in the same sequence, the figures for `Fc1ccc(-c2[nH]ncc2Oc2ccc(Cl)cc2)c(F)c1` [Example 15, 4-(4-Chlorophenoxy)-5-(2,4-difluorophenyl)-1H-pyrazole] were 18.6 nM and 159 nM.
Take `N#Cc1ccc(Oc2cn[nH]c2-c2cccc(CN3CCOCC3)c2)cc1` [Example 75, 4-[[3-[3-(Morpholin-4-ylmethyl)phenyl]-1H-pyrazol-4-yl]oxy]benzonitrile]: the EC50 in test [1] is 8.5 nM; in test [2], 139 nM.
The corresponding values for `CS(=O)(=O)c1ccc(-c2[nH]ncc2Oc2ccc(C#N)cc2)cc1` [Example 18, 4-[[5-(4-Methylsulfonylphenyl)-1H-pyrazol-4-yl]oxy]benzonitrile] are 23.9 nM and 462 nM.
For `Cn1nncc1COc1cccc(-c2[nH]ncc2Oc2ccc(C#N)cc2)c1` [Example 53, 4-[[3-[3-[(3-Methyltriazol-4-yl)methoxy]phenyl]-1H-pyrazol-4-yl]oxy]benzonitrile], the EC50 in test [1] was determined as 23.8 nM; in test [2], 198 nM.
On to `N#Cc1ccc(Oc2cn[nH]c2-c2ccccc2C(=O)O)cc1` [Example 40, 2-[4-(4-Cyanophenoxy)-1H-pyrazol-3-yl]benzoic acid], for which the results for the EC50 in test [1] and in test [2] were 1500 nM and above 30000 nM, respectively.
Take `CCCCOc1cccc(-c2[nH]ncc2Oc2ccc(C#N)cc2)c1` [Example 59, 4-[[5-(3-Butoxyphenyl)-1H-pyrazol-4-yl]oxy]benzonitrile]: the EC50 in test [1] worked out at 10.9 nM; in test [2], 102 nM.
As to `Fc1cccc(-c2[nH]ncc2Oc2ccc(Cl)cc2)c1F` [Example 1, 4-(4-Chlorophenoxy)-5-(2,3-difluorophenyl)-1H-pyrazole], the results for the 50% effective concentration (EC50) in test [1] and in test [2] were 29.8 nM and 1030 nM, respectively.
Taken in the same sequence, the figures for `Fc1cc(C(F)(F)F)ccc1-c1[nH]ncc1Oc1ccc(Cl)cc1` [Example 13, 4-(4-Chlorophenoxy)-5-[2-fluoro-4-(trifluoromethyl)phenyl]-1H-pyrazole] were 408 nM and 2470 nM.
As to `N#Cc1ccc(Oc2cn[nH]c2-c2cccc(Cn3ccc(=O)cc3)c2)cc1` [Example 72, 4-[[3-[3-[(4-Oxopyridin-1-yl)methyl]phenyl]-1H-pyrazol-4-yl]oxy]benzonitrile], the EC50 in test [1] came out at 1630 nM; in test [2] it was 19300 nM.
With `CC(=O)N1CCN(C(=O)c2cccc(-c3[nH]ncc3Oc3ccc(C#N)cc3)c2)CC1` [Example 44, 4-[[3-[3-(4-Acetylpiperazine-1-carbonyl)phenyl]-1H-pyrazol-4-yl]oxy]benzonitrile], the EC50 in test [1] was 313 nM; in test [2], above 30000 nM.
As for `CSc1ccc(-c2[nH]ncc2Oc2ccc(Cl)cc2)c(Cl)c1` [Example 17, 5-(2-Chloro-4-methylsulfanylphenyl)-4-(4-chlorophenoxy)-1H-pyrazole], the figures for the EC50 in test [1] and in test [2] were 60.8 nM and 522 nM, respectively.
The corresponding values for `N#Cc1ccc(Oc2cn[nH]c2-c2cccc(COc3cccc(Cl)n3)c2)cc1` [Example 73, 4-[[3-[3-[(6-Chloropyridin-2-yl)oxymethyl]phenyl]-1H-pyrazol-4-yl]oxy]benzonitrile] are 104 nM and 411 nM.
Taken in the same sequence, the figures for `CS(=O)(=O)N1CCN(C(=O)c2cccc(-c3[nH]ncc3Oc3ccc(C#N)cc3)c2)CC1` [Example 46, 4-[[3-[3-(4-Methylsulfonylpiperazine-1-carbonyl)phenyl]-1H-pyrazol-4-yl]oxy]benzonitrile] were 1050 nM and 10700 nM.
Taken in the same sequence, the figures for `CC(=O)N1CCCC(c2[nH]ncc2Oc2ccc(C#N)cc2)C1` (racemic) [Example 62, (rac)-4-[[3-(1-Acetylpiperidin-3-yl)-1H-pyrazol-4-yl]oxy]benzonitrile] were 370 nM and 2280 nM.
Regarding `Clc1ccc(Oc2cn[nH]c2-c2ccc(Cl)cc2)cc1` [Example 3, 4-(4-Chlorophenoxy)-3-(4-chlorophenyl)-1H-pyrazole], the values for the EC50 in test [1] and in test [2] were 323 nM and 1380 nM, respectively.
For `COC(=O)c1cccc(-c2[nH]ncc2Oc2ccc(C#N)cc2F)c1` [Example 38, Methyl 3-[4-(4-cyano-2-fluorophenoxy)-1H-pyrazol-3-yl]benzoate], the EC50 came to 31.9 nM in test [1] and 321 nM in test [2].
For the compound `Fc1cc(Cl)ccc1-c1[nH]ncc1Oc1ccc(C(F)(F)F)cc1` [Example 27, 5-(4-Chloro-2-fluorophenyl)-4-[4-(trifluoromethyl)phenoxy]-1H-pyrazole], the EC50 in test [1] is 575 nM; in test [2] it was 3320 nM.
As for `CS(=O)(=O)c1ccc(-c2[nH]ncc2Oc2ccc(C(F)(F)F)cc2)cc1` [Example 16, 5-(4-Methylsulfonylphenyl)-4-[4-(trifluoromethyl)phenoxy]-1H-pyrazole], the EC50 in test [1] came to 84.5 nM; in test [2], 1970 nM.
Taken in the same sequence, the figures for `N#Cc1ccc(Oc2cn[nH]c2C2CCCN(C(=O)c3ccccn3)C2)cc1` (racemic) [Example 65, (rac)-4-[[3-[1-(Pyridine-2-carbonyl)piperidin-3-yl]-1H-pyrazol-4-yl]oxy]benzonitrile] were 1410 nM and 5910 nM.
For `Cn1cc(COc2ccccc2-c2[nH]ncc2Oc2ccc(C#N)cc2)cn1` [Example 80, 4-[[3-[2-[(1-Methylpyrazol-4-yl)methoxy]phenyl]-1H-pyrazol-4-yl]oxy]benzonitrile], the EC50 in test [1] stood at 0.3 nM; in test [2] it was 6.9 nM.
For the compound `N#Cc1ccc(Oc2cn[nH]c2-c2cccc(F)c2F)cc1` [Example 29, 4-[[5-(2,3-Difluorophenyl)-1H-pyrazol-4-yl]oxy]benzonitrile], the EC50 in test [1] stood at 7.5 nM; in test [2], 161 nM.
Taken in the same sequence, the figures for `N#Cc1ccc(Oc2cn[nH]c2-c2cccc(OCc3ccnc(Cl)c3)c2)cc1` [Example 55, 4-[[3-[3-[(2-Chloropyridin-4-yl)methoxy]phenyl]-1H-pyrazol-4-yl]oxy]benzonitrile] were 33.1 nM and 288 nM.
Taken in the same sequence, the figures for `N#Cc1ccc(Oc2cn[nH]c2-c2cccc(COc3cccnc3)c2)cc1` [Example 70, 4-[[3-[3-(Pyridin-3-yloxymethyl)phenyl]-1H-pyrazol-4-yl]oxy]benzonitrile] were 10.6 nM and 38.3 nM.
The corresponding values for `N#Cc1ccc(Oc2cn[nH]c2-c2ccnc(Cl)c2)cc1` [Example 37, 4-[[5-(2-Chloropyridin-4-yl)-1H-pyrazol-4-yl]oxy]benzonitrile] are 317 nM and 10500 nM.
Regarding `N#Cc1ccc(Oc2cn[nH]c2-c2ccccc2Cl)c(F)c1` [Example 28, 4-[[5-(2-Chlorophenyl)-1H-pyrazol-4-yl]oxy]-3-fluorobenzonitrile], the EC50 in test [1] turned out to be 1.5 nM; in test [2], 134 nM.

The record behind these values is patent US9790217B2, “Pyridinyloxy- and phenyloxy-pyrazolyl compounds” (Hoffmann-La Roche Inc., priority 2014, dated 2017).
